Test results from patent publication US4599352A, “Antineoplastic platinum (IV) complexes and compositions” (priority 1984, dated 1986).

Legend:
[1] = test system: IP L1210 leukemia; experiment: Mouse optimal (highest tolerated) dose, IP L1210 leukemia, Days 1, 5 and 9 schedule (Table 7); type: in vivo
Description: *IP L1210 leukemia, Days 1, 5 and 9 schedule. Highest tolerated dose in a
least 2 of 3 experiments (i.e,. animal weight difference (testcontrol)

[2] = test system: IP-Implanted L1210/Cisplatin; experiment: Comparison of isomers: long term survivors and weight differences in treating IP-implanted L1210/Cisplatin (Table 6); type: in vivo, mice
Description: Comparative data for the others are as follows: 27 for trans d, 27 for trans d l and 13 for cis. […] The higher the ratio the more convenient it is to prepare a formulation for intravenous administration to patients which is shown in Table 7.

[3] = test system: IP-Implanted L1210 Leukemia; experiment: Dose-response against IP-implanted L1210 leukemia, IP treatment Days 1, 5 and 9, 30-day test (Table 2); type: in vivo, CD2Fl male mice
Description: (§1) Biological properties of the compounds of the present invention were determined following the protocol described in Cancer Chemotherapy Reports, Vol. 3, No. 3, 1972 which report is incorporated herein by reference.
(§2) This experiment (A8-00005 3LE31) was conducted at the Southern Research Institute, Birmingham, Ala. under the supervision of Dr. Daniel Griswold. The protocols were the same as those published previously (Geran et al., Cancer Chemotherapy Reports 3: No. 2, 1972 [Attachment 11]). 10^5 cells were implanted intraperitoneally in CD2Fl male mice on Day 0. Drug treatments were given intraperitoneally as single injections at the doses indicated on Days 1, 5 and 9 after tumor implantation. The diluent was saline except for NSC-271674 where 5% sodium bicarbonate was used. All drugs were prepared fresh on the day of injection, and all were administered in solution. Median survival times for both control and drug-treated mice were determined and expressed as a percentage (% T/C). Body weights were determined on Day 5 and expressed as a weight difference (body weight of the drug-treated animals minus that of the control animals in grams) (T-C). The diluent control animals lived a median of 8.4 days and gained 1.9 grams by Day 5 in this experiment. All animals, including Day 30 survivors, were used in the calculation of median survival times. The log10 change in tumor burden refers to the net log change in viable tumor cell population at the end of therapy (Rx) as compared to the start of therapy; e.g., a […] means that there was a […] and a 3 log change means there was a 1000-fold increase in tumor burden at the end of therapy. The tumor burden at the start of therapy was about 6.1×10^5 cells in this experiment.

[4] = test system: SC Implanted L1210 Leukemia; experiment: Activity against SC implanted L1210 leukemia following intravenous administration, once daily Days 1-5 (Table 5); type: in vivo, CD2Fl male mice; details: for HNTD (highest nontoxic dose; animal weight difference ≥ -4.0 grams) / Optimal Dose: IV once daily Days 1-5
Description: as §1
In another type of experiment the same platinum complexes were directly compared against the SC implanted L1210 following intravenous administration (Table 5).
This experiment (A8-00004 3LE32) was conducted at the Southern Research Institute, Birmingham, Ala. under the supervision of Dr. Daniel Griswold. The protocols were the same as those published previously (Attachment 11). 10^6 cells were implanted subcutaneously in CD2Fl male mice on Day 0. Drug treatments were given intravenously once daily at the doses indicated on Days 1-5 after tumor implantation. The dosage range tested included the highest and lowest doses indicated in the Table as well as intermediate values which were determined by multiplying each dose in turn by 0.5 starting with the highest dose. The diluent was saline except for NSC-271674 for which 5% sodium bicarbonate was used. All drugs were prepared fresh on the day of injection, and all were administered in solution. Median survival times for both control and drug-treated mice were determined and expressed as a percentage (% T/C). Body weights were determined on Day 5 and expressed as a weight difference (body weight of the drug-treated animals minus that of the control animals in grams) (T-C).

[5] = test system: IP L1210; experiment: Activity against IP-implanted L1210 leukemia sensitive to cisplatin, 30 day test (Table 3); type: in vivo, Female CD2Fl mice
Description: as §1
Other known mechanisms of resistance for other classes of agents, such as gene amplification or target enzyme change or amplication, also need to be explored. The experiments summarized in Table 3 were conducted at the same time against both sublines using the same drug preparations. […] These experiments were repeated in a second laboratory as documented in Table 4. However, in these experiments the animals were held for 60 rather than 30 days to evaluate whether or not long-term survivors are produced after drug treatment in a more challenging setting.
as §2
These experiments (A8-00008 3LE31 and A8-00001 3DP31) were conducted concurrently at the Southern Research Institute, Birmingham, Ala. under the supervision of Dr. Daniel Griswold. See Table 4 for experimental details. The diluent control animals bearing L1210 leukemia lived a median of 8.6 days and gained 1.3 grams by Day 5. […] Female CD2Fl mice were used for these experiments.

[6] = test system: L1210 and L1210/Cisplatin leukemia; experiment: Total number of long-term survivors in Tables 2-4; type: in vivo, CD2Fl mice; details: Tables 2-4 summed
Description: If one summarizes the data in Tables 2-4 by totalling the number of long-term survivors, unexpected differences among the isomers become apparent. For example, the trans l compound produced 30 long-term survivors.

[Cl][Pt-2]1([Cl])([Cl])([Cl])[NH2+][C@H]2CCCC[C@@H]2[NH2+]1 [trans (d), (1S, 2S)-Tetrachloro-trans-1,2-cyclohexanediamine platinum (IV)]
Mouse Optimal Dose (highest tolerated dose in at least 2 of 3 experiments) [1]: 8 mg/kg
Total Grams of Weight Difference [2]: -11.9 Grams
Total number of long-term survivors [2]: 11
30-Day Survivors/Total ([3]; 1 mg/kg/dose IP): 0/6
Body Weight Difference ([3]; 1 mg/kg/dose IP): -0.3 Grams
Median % T/C ([3]; 1 mg/kg/dose IP): 119%
30-Day Survivors/Total ([3]; 2 mg/kg/dose IP): 0/6
Approx. Log10 Change in Tumor Burden at End of Rx ([3]; 2 mg/kg/dose IP): ~2.7 log10
Body Weight Difference ([3]; 2 mg/kg/dose IP): -0.6 Grams
Median % T/C ([3]; 2 mg/kg/dose IP): 134%
30-Day Survivors/Total ([3]; 4 mg/kg/dose IP): 1/6
Approx. Log10 Change in Tumor Burden at End of Rx ([3]; 4 mg/kg/dose IP): ~-1.1 log10
Body Weight Difference ([3]; 4 mg/kg/dose IP): -0.9 Grams
Median % T/C ([3]; 4 mg/kg/dose IP): 211%
30-Day Survivors/Total ([3]; 8 mg/kg/dose IP): 3/6
Approx. Log10 Change in Tumor Burden at End of Rx ([3]; 8 mg/kg/dose IP): ~-5.7 log10
Body Weight Difference ([3]; 8 mg/kg/dose IP): -1.7 Grams
Median % T/C ([3]; 8 mg/kg/dose IP): 357%
Body Weight Difference ([3]; 8 mg/kg/dose IP, listed as trans d): less than -4 Grams
30-Day Survivors/Total ([3]; 16 mg/kg/dose IP): 1/6
Approx. Log10 Change in Tumor Burden at End of Rx ([3]; 16 mg/kg/dose IP): ~-2.0 log10
Body Weight Difference ([3]; 16 mg/kg/dose IP): -4.9 Grams
Median % T/C ([3]; 16 mg/kg/dose IP): 226%
Optimal dose (dose producing best therapeutic response) ([3]; day 1, 5 and 9 schedule): 8 mg/kg/injection
Body Weight Difference ([4]; 5 mg/kg/inj IV): -6.4 Grams
Median % T/C ([4]; 5 mg/kg/inj IV): 172%
Median Survival Time ([4]; 5 mg/kg/inj IV): 17.8 days
HNTD (highest nontoxic dose; animal weight difference ≥ -4.0 grams) [4]: 2.5 mg/kg/inj
Optimal Dose [4]: 5.0 mg/kg/inj
30 Day Survivors/Total ([5]; 1 mg/kg/dose): 0/6
Approx. Log10 Change in Tumor Burden at End of RX ([5]; 1 mg/kg/dose): ~3.0 log10
Median % T/C ([5]; 1 mg/kg/dose): 113%
30 Day Survivors/Total ([5]; 2 mg/kg/dose): 0/6
Approx. Log10 Change in Tumor Burden at End of RX ([5]; 2 mg/kg/dose): ~2.5 log10
Median % T/C ([5]; 2 mg/kg/dose): 144%
30 Day Survivors/Total ([5]; 4 mg/kg/dose): 2/6
Approx. Log10 Change in Tumor Burden at End of RX ([5]; 4 mg/kg/dose): ~-1.2 log10
Median % T/C ([5]; 4 mg/kg/dose): 209%
30 Day Survivors/Total ([5]; 8 mg/kg/dose): 3/6
Approx. Log10 Change in Tumor Burden at End of RX ([5]; 8 mg/kg/dose): ~-5.9 log10
Median % T/C ([5]; 8 mg/kg/dose): 348%
30 Day Survivors/Total ([5]; 16 mg/kg/dose): 0/6
Median % T/C ([5]; 16 mg/kg/dose): 96%
Total number of long-term survivors [6]: 27

N[C@@H]1CCCC[C@H]1N.O=C([O-])c1ccc(C(=O)[O-])c(C(=O)[O-])c1.[H+].[Pt+2] [Carboxyphthalato Platinum, carboxyphthalatocyclohexanediamine platinum (II), reference compound]
Mouse Optimal Dose (highest tolerated dose in at least 2 of 3 experiments) [1]: 12.5 mg/kg
30-Day Survivors/Total ([3]; 3.13 mg/kg/dose IP): 0/6
Approx. Log10 Change in Tumor Burden at End of Rx ([3]; 3.13 mg/kg/dose IP): ~2.5 log10
Body Weight Difference ([3]; 3.13 mg/kg/dose IP): -0.5 Grams
Median % T/C ([3]; 3.13 mg/kg/dose IP): 146%
30-Day Survivors/Total ([3]; 6.25 mg/kg/dose IP): 0/6
Approx. Log10 Change in Tumor Burden at End of Rx ([3]; 6.25 mg/kg/dose IP): ~2.3 log10
Body Weight Difference ([3]; 6.25 mg/kg/dose IP): -0.8 Grams
Median % T/C ([3]; 6.25 mg/kg/dose IP): 154%
30-Day Survivors/Total ([3]; 12.5 mg/kg/dose IP): 2/6
Approx. Log10 Change in Tumor Burden at End of Rx ([3]; 12.5 mg/kg/dose IP): -5.7 log10
Body Weight Difference ([3]; 12.5 mg/kg/dose IP): -2.1 Grams
Median % T/C ([3]; 12.5 mg/kg/dose IP): 309%
30-Day Survivors/Total ([3]; 25 mg/kg/dose IP): 4/6
Approx. Log10 Change in Tumor Burden at End of Rx ([3]; 25 mg/kg/dose IP): -5.7 log10
Body Weight Difference ([3]; 25 mg/kg/dose IP): -1.5 Grams
Median % T/C ([3]; 25 mg/kg/dose IP): 357%
30-Day Survivors/Total ([3]; 50 mg/kg/dose IP): 2/6
Approx. Log10 Change in Tumor Burden at End of Rx ([3]; 50 mg/kg/dose IP): -5.7 log10
Body Weight Difference ([3]; 50 mg/kg/dose IP): -5.0 Grams
Median % T/C ([3]; 50 mg/kg/dose IP): 345%
Body Weight Difference ([3]; 50 mg/kg/dose IP, listed as carboxyphthalato cyclohexanediamine platinum (II)): more than -4 Grams
Body Weight Difference ([4]; 6.25 mg/kg/inj IV): -2.6 Grams
Median % T/C ([4]; 6.25 mg/kg/inj IV): 124%
Median Survival Time ([4]; 6.25 mg/kg/inj IV): 12.8 days
Body Weight Difference ([4]; 12.5 mg/kg/inj IV): -6.1 Grams
Median % T/C ([4]; 12.5 mg/kg/inj IV): 165%
Median Survival Time ([4]; 12.5 mg/kg/inj IV): 17.0 days
HNTD (highest nontoxic dose; animal weight difference ≥ -4.0 grams) [4]: 6.25 mg/kg/inj
Optimal Dose [4]: 12.5 mg/kg/inj
30 Day Survivors/Total ([5]; 3.13 mg/kg/dose): 1/6
Approx. Log10 Change in Tumor Burden at End of RX ([5]; 3.13 mg/kg/dose): ~1.4 log10
Median % T/C ([5]; 3.13 mg/kg/dose): 174%
30 Day Survivors/Total ([5]; 6.25 mg/kg/dose): 5/6
Approx. Log10 Change in Tumor Burden at End of RX ([5]; 6.25 mg/kg/dose): ~-5.9 log10
Median % T/C ([5]; 6.25 mg/kg/dose): 348%
30 Day Survivors/Total ([5]; 12.5 mg/kg/dose): 6/6
Approx. Log10 Change in Tumor Burden at End of RX ([5]; 12.5 mg/kg/dose): ~-5.9 log10
Median % T/C ([5]; 12.5 mg/kg/dose): 348%
30 Day Survivors/Total ([5]; 25 mg/kg/dose): 0/6
Median % T/C ([5]; 25 mg/kg/dose): 73%
30 Day Survivors/Total ([5]; 50 mg/kg/dose): 0/6
Median % T/C ([5]; 50 mg/kg/dose): 50%
